Patent publication US4931569A, “Purification of stable water-soluble dioxetanes” (Tropix, Inc., priority 1988, dated 1990)
Counter-ions that a name gives are not always drawn.

Legend:
[1] = stability of the dioxetane in solution or after lyophilization, followed by analytical HPLC; format: physicochemical
Experimental: Peak fractions from FIG. 3C were combined, lyophilized, then analyzed by analytical HPLC on a reversed phase PLRP-S analytical column with a gradient of acetonitrile in 0.1% NaHCO3 buffer, pH 8.6, as the mobile phase.
The AMPPD fraction from FIG. 4 was collected, freeze-dried, then fractionated on an analytical size column of Dynamax C-18 using as the mobile phase a gradient of acetonitrile in 0.1% ammonium acetate, pH 7.0.
The 6 minute AMPPD peak from FIG. 4, which eluted with 31% acetonitrile in 0.1% ammonium acetate buffer, pH 7.0, was stored overnight in this solution without concentration, then chromatographed by HPLC on an analytical Dynamax C-18 column in a gradient of acetonitrile in 0.1% ammonium acetate buffer, pH 7.0 (FIG. 6).
When, however, AMPPD in the 6-minute peak from preparative HPLC (FIG. 4) was stored in the presence of the ammonium acetate column effluent for long periods of time at 4° C.

alkaline phosphatase = alkaline phosphatase chemiluminescence assay (light emission, Turner 20E Luminometer; sensitivity plot); format: biochemical; conditions: for light emission upon reaction with alkaline phosphatase: peaks collected from preparative HPLC (FIG. 1), lyophilized, tested as substrate, FIG. 2
Source text: Another such method involves testing the 1,2-dioxetane derivative as a substrate for an enzyme in a chemiluminescence assay (see for example, Example 2 infra), and comparing its behavior to that of an authentic sample of highly pure substrate in the same assay. The light intensity produced per unit amount of the substrate is directly proportional to the degree of purity of the substrate, when compared to the light intensity produced by the highly pure sample. When the light intensity produced from pure and impure substrate is plotted as a function of the molar concentration of the biochemical analyte, a family of parallel sigmoid curves is produced; this is called a sensitivity plot. The sensitivity curve for an impure sample will be shifted to the right of the curve for a pure sample; that is, the assay is less sensitive when using the impure sample. The greater the degree of impurity, the greater the shift of the sensitivity curve to the right. Purification of the crude reaction products of the chemical syntheses of the chemiluminescent, water-soluble 1,2 dioxetane derivatives by the methods of this invention will increase the sensitivity of the assay using the dioxetane product by at least 2-fold, preferably about 10-fold (see Example 6, FIG. 9).
The breakdown product and the AMPPD from FIG. 1 were collected, dried by lyophilization, then tested as a substrate for alkaline phosphatase in a chemiluminescence assay. The details of this assay are provided in copending U S. Pat. Application Ser. No. 889,823, which is incorporated herein by reference to the extent that it discloses assay conditions for alkaline phosphatase. Light emission was determined in a Turner 20E Luminometer.
The alkaline phosphatase chemiluminescent assay was applied to a relatively crude sample of AMPPD from Example 4, FIG. 5, and to an HPLC purified sample of AMPPD from Example 3, FIG. 3D. Light intensity produced in the chemiluminescent assay was plotted as a function of the molar concentration of alkaline phosphatase in the assay mixture (FIG. 9).

Row | Compound | stability on brief (overnight) storage in ammonium acetate buffer ([1]; 31% acetonitrile in 0.1% ammonium acetate buffer, pH 7.0, without concentration, FIG. 6) | stability in water ([1]; desalted and non-desalted preparations, analytical HPLC on PLRP-S, FIG. 3D) | stability after lyophilization in the presence of ammonium ions ([1]; freeze-dried from 0.1% ammonium acetate buffer, pH 7.0, analytical HPLC on Dynamax C-18, FIG. 5) | stability on long-term storage in ammonium acetate column effluent ([1]; long periods of time at 4° C. in the dark, analytical HPLC on Dynamax C18, FIG. 7) | sensitivity of the chemiluminescent assay relative to crude AMPPD (alkaline phosphatase; HPLC purified sample (FIG. 3D) vs crude sample (FIG. 5), at all concentrations of alkaline phosphatase, FIG. 9) | light emission upon reaction with alkaline phosphatase (alkaline phosphatase) | lowest concentration of alkaline phosphatase that could be detected (alkaline phosphatase; with purified AMPPD as substrate)
1 | COC1(c2cccc(OP(=O)(O)O)c2)OOC12C1CC3CC(C1)CC2C3 (centres unmarked) [AMPPD, 3-(2'-spiroadamantane)-4-methoxy-4-(3"-phosphoryloxy)phenyl-1,2-dioxetane disodium salt] | did not lead to significant breakdown | stable for long periods | unstable | increased breakdown | at least an order of magnitude greater | typical of AMPPD | about 10^-15 M
2 | COC(=O)c1cccc(OP(=O)(O)O)c1 [Breakdown Product] | – | – | – | – | – | no light emission | –
